± gives the uncertainty stated by the source.
Test: xn = mol fraction of the nth substance listed

Structure (SMILES): CCCCCCCO + CCCC[n+]1ccn(C)c1.O=[N+]([O-])[O-]
- viscosity (293.15 K, 100 kPa, x2 = 0): 7.03 ± 0.56 mPa·s
- viscosity (303.15 K, 100 kPa, x2 = 0): 5.03 ± 0.4 mPa·s
- viscosity (313.15 K, 100 kPa, x2 = 0): 3.71 ± 0.3 mPa·s
- viscosity (323.15 K, 100 kPa, x2 = 0): 2.79 ± 0.22 mPa·s

Structure (SMILES): CC(=O)[O-].CC[n+]1ccn(C)c1 + [Cl-].[NH4+]
- electrical conductivity (308.15 K, 101 kPa, x2 = 0): 0.473 ± 0.0095 S/m
- viscosity (308.15 K, 101 kPa, x2 = 0): 71.3 ± 4.6 mPa·s
- electrical conductivity (318.15 K, 101 kPa, x2 = 0): 0.76 ± 0.015 S/m
- viscosity (318.15 K, 101 kPa, x2 = 0): 44.2 ± 2.9 mPa·s

Structure (SMILES): OCC(F)(F)F + COP(=O)([O-])OC.Cn1cc[n+](C)c1
- viscosity (298.15 K, 101 kPa, x2 = 0.4904): 42.9 ± 1.8 mPa·s
- viscosity (298.15 K, 101 kPa, x2 = 0.803): 158.2 ± 8.6 mPa·s
- viscosity (333.15 K, 101 kPa, x2 = 0.803): 31.5 ± 1.3 mPa·s

Structure (SMILES): C[C@H](N)C(=O)[O-].C[N+](C)(C)CCO + CCO
- viscosity (287.88 K, 100 kPa, x1 = 1): 4500 ± 1300 mPa·s
- viscosity (287.97 K, 100 kPa, x1 = 0.6071): 550 ± 140 mPa·s
- viscosity (288 K, 100 kPa, x1 = 0.2012): 17.5 ± 4.3 mPa·s
- viscosity (288.02 K, 100 kPa, x1 = 0.1013): 5.6 ± 1.4 mPa·s
- viscosity (288.04 K, 100 kPa, x1 = 0.8027): 1750 ± 440 mPa·s
- viscosity (288.05 K, 100 kPa, x1 = 0.3782): 89 ± 22 mPa·s
- viscosity (288.05 K, 100 kPa, x1 = 0.5527): 359 ± 88 mPa·s
- viscosity (288.05 K, 100 kPa, x1 = 0.7056): 1079 ± 270 mPa·s
- viscosity (288.09 K, 100 kPa, x1 = 0.2903): 42 ± 10 mPa·s
- viscosity (288.1 K, 100 kPa, x1 = 1): 5100 ± 1400 mPa·s
- viscosity (288.12 K, 100 kPa, x1 = 0.894): 2875 ± 730 mPa·s
- viscosity (289.23 K, 100 kPa, x1 = 0.6071): 520 ± 130 mPa·s
- viscosity (289.25 K, 100 kPa, x1 = 0.3782): 88 ± 21 mPa·s
- viscosity (289.26 K, 100 kPa, x1 = 0.2012): 17 ± 4.1 mPa·s
- viscosity (289.26 K, 100 kPa, x1 = 0.8027): 1625 ± 400 mPa·s
- viscosity (289.28 K, 100 kPa, x1 = 0.1013): 5.3 ± 1.3 mPa·s
- viscosity (289.28 K, 100 kPa, x1 = 0.5527): 339 ± 82 mPa·s
- viscosity (289.29 K, 100 kPa, x1 = 0.7056): 990 ± 250 mPa·s
- viscosity (289.31 K, 100 kPa, x1 = 0.2903): 40.6 ± 9.7 mPa·s
- viscosity (289.34 K, 100 kPa, x1 = 0.894): 2592 ± 650 mPa·s
- viscosity (289.96 K, 100 kPa, x1 = 1): 3700 ± 1000 mPa·s
- viscosity (290.21 K, 100 kPa, x1 = 1): 4300 ± 1200 mPa·s
- viscosity (290.48 K, 100 kPa, x1 = 0.6071): 470 ± 120 mPa·s
- viscosity (290.5 K, 100 kPa, x1 = 0.3782): 85 ± 20 mPa·s
- viscosity (290.51 K, 100 kPa, x1 = 0.2012): 16.4 ± 3.9 mPa·s
- viscosity (290.51 K, 100 kPa, x1 = 0.8027): 1464 ± 360 mPa·s
- viscosity (290.52 K, 100 kPa, x1 = 0.1013): 5.1 ± 1.2 mPa·s
- viscosity (290.52 K, 100 kPa, x1 = 0.5527): 315 ± 77 mPa·s
- viscosity (290.52 K, 100 kPa, x1 = 0.7056): 900 ± 220 mPa·s
- viscosity (290.53 K, 100 kPa, x1 = 0.2903): 39.2 ± 9.4 mPa·s
- viscosity (290.55 K, 100 kPa, x1 = 0.894): 2319 ± 580 mPa·s
- viscosity (291.71 K, 100 kPa, x1 = 0.6071): 430 ± 110 mPa·s
- viscosity (291.72 K, 100 kPa, x1 = 0.2012): 15.7 ± 3.8 mPa·s
- viscosity (291.72 K, 100 kPa, x1 = 0.3782): 80 ± 19 mPa·s
- viscosity (291.73 K, 100 kPa, x1 = 0.1013): 4.9 ± 1.2 mPa·s
- viscosity (291.73 K, 100 kPa, x1 = 0.2903): 37.6 ± 9 mPa·s
- viscosity (291.73 K, 100 kPa, x1 = 0.5527): 291 ± 71 mPa·s
- viscosity (291.73 K, 100 kPa, x1 = 0.7056): 820 ± 200 mPa·s
- viscosity (291.73 K, 100 kPa, x1 = 0.8027): 1311 ± 330 mPa·s
- viscosity (291.74 K, 100 kPa, x1 = 0.894): 2072 ± 520 mPa·s
- viscosity (292.02 K, 100 kPa, x1 = 1): 3052 ± 830 mPa·s
- viscosity (292.32 K, 100 kPa, x1 = 1): 3520 ± 940 mPa·s
- viscosity (292.91 K, 100 kPa, x1 = 0.1013): 4.7 ± 1.1 mPa·s
- viscosity (292.91 K, 100 kPa, x1 = 0.3782): 76 ± 18 mPa·s
- viscosity (292.91 K, 100 kPa, x1 = 0.6071): 394 ± 96 mPa·s
- viscosity (292.92 K, 100 kPa, x1 = 0.2012): 15 ± 3.6 mPa·s
- viscosity (292.92 K, 100 kPa, x1 = 0.2903): 36 ± 8.6 mPa·s
- viscosity (292.92 K, 100 kPa, x1 = 0.5527): 268 ± 65 mPa·s
- viscosity (292.92 K, 100 kPa, x1 = 0.7056): 740 ± 180 mPa·s
- viscosity (292.92 K, 100 kPa, x1 = 0.8027): 1180 ± 290 mPa·s
- viscosity (292.92 K, 100 kPa, x1 = 0.894): 1858 ± 470 mPa·s
- viscosity (294.08 K, 100 kPa, x1 = 1): 2544 ± 670 mPa·s
- viscosity (294.09 K, 100 kPa, x1 = 0.1013): 4.5 ± 1.1 mPa·s
- viscosity (294.09 K, 100 kPa, x1 = 0.2012): 14.3 ± 3.4 mPa·s
- viscosity (294.09 K, 100 kPa, x1 = 0.2903): 34.4 ± 8.3 mPa·s
- viscosity (294.09 K, 100 kPa, x1 = 0.6071): 360 ± 88 mPa·s
- viscosity (294.1 K, 100 kPa, x1 = 0.3782): 73 ± 18 mPa·s
- viscosity (294.1 K, 100 kPa, x1 = 0.5527): 248 ± 60 mPa·s
- viscosity (294.1 K, 100 kPa, x1 = 0.7056): 670 ± 170 mPa·s
- viscosity (294.1 K, 100 kPa, x1 = 0.8027): 1065 ± 260 mPa·s
- viscosity (294.1 K, 100 kPa, x1 = 0.894): 1669 ± 420 mPa·s
- viscosity (294.41 K, 100 kPa, x1 = 1): 2896 ± 760 mPa·s
- viscosity (295.27 K, 100 kPa, x1 = 0.1013): 4.4 ± 1 mPa·s
- viscosity (295.27 K, 100 kPa, x1 = 0.2012): 13.8 ± 3.3 mPa·s
- viscosity (295.27 K, 100 kPa, x1 = 0.2903): 33.1 ± 8 mPa·s
- viscosity (295.27 K, 100 kPa, x1 = 0.3782): 70 ± 17 mPa·s
- viscosity (295.27 K, 100 kPa, x1 = 0.5527): 231 ± 56 mPa·s
- viscosity (295.27 K, 100 kPa, x1 = 0.6071): 333 ± 81 mPa·s
- viscosity (295.27 K, 100 kPa, x1 = 0.7056): 620 ± 150 mPa·s
- viscosity (295.27 K, 100 kPa, x1 = 0.8027): 970 ± 240 mPa·s
- viscosity (295.27 K, 100 kPa, x1 = 0.894): 1510 ± 380 mPa·s
- viscosity (296.14 K, 100 kPa, x1 = 1): 2140 ± 560 mPa·s
- viscosity (296.45 K, 100 kPa, x1 = 0.1013): 4.2 ± 1 mPa·s
- viscosity (296.45 K, 100 kPa, x1 = 0.2012): 13.2 ± 3.2 mPa·s
- viscosity (296.45 K, 100 kPa, x1 = 0.2903): 31.7 ± 7.6 mPa·s
- viscosity (296.45 K, 100 kPa, x1 = 0.3782): 66 ± 16 mPa·s
- viscosity (296.45 K, 100 kPa, x1 = 0.5527): 216 ± 52 mPa·s
- viscosity (296.45 K, 100 kPa, x1 = 0.6071): 308 ± 75 mPa·s
- viscosity (296.45 K, 100 kPa, x1 = 0.7056): 560 ± 140 mPa·s
- viscosity (296.45 K, 100 kPa, x1 = 0.8027): 880 ± 220 mPa·s
- viscosity (296.45 K, 100 kPa, x1 = 0.894): 1365 ± 340 mPa·s
- viscosity (296.48 K, 100 kPa, x1 = 1): 2402 ± 620 mPa·s
- viscosity (297.63 K, 100 kPa, x1 = 0.1013): 3.97 ± 0.95 mPa·s
- viscosity (297.63 K, 100 kPa, x1 = 0.2012): 12.6 ± 3 mPa·s
- viscosity (297.63 K, 100 kPa, x1 = 0.2903): 30.2 ± 7.3 mPa·s
- viscosity (297.63 K, 100 kPa, x1 = 0.3782): 63 ± 15 mPa·s
- viscosity (297.63 K, 100 kPa, x1 = 0.5527): 200 ± 48 mPa·s
- viscosity (297.63 K, 100 kPa, x1 = 0.6071): 283 ± 69 mPa·s
- viscosity (297.63 K, 100 kPa, x1 = 0.7056): 520 ± 130 mPa·s
- viscosity (297.63 K, 100 kPa, x1 = 0.8027): 800 ± 200 mPa·s
- viscosity (297.63 K, 100 kPa, x1 = 0.894): 1234 ± 310 mPa·s
- viscosity (298.2 K, 100 kPa, x1 = 1): 1806 ± 460 mPa·s
- viscosity (298.54 K, 100 kPa, x1 = 1): 2000 ± 510 mPa·s
- viscosity (298.81 K, 100 kPa, x1 = 0.1013): 3.81 ± 0.92 mPa·s
- viscosity (298.81 K, 100 kPa, x1 = 0.2012): 12.1 ± 2.9 mPa·s
- viscosity (298.81 K, 100 kPa, x1 = 0.2903): 29.1 ± 7 mPa·s
- viscosity (298.81 K, 100 kPa, x1 = 0.3782): 61 ± 15 mPa·s
- viscosity (298.81 K, 100 kPa, x1 = 0.5527): 188 ± 45 mPa·s
- viscosity (298.81 K, 100 kPa, x1 = 0.6071): 263 ± 64 mPa·s
- viscosity (298.81 K, 100 kPa, x1 = 0.7056): 480 ± 120 mPa·s

Structure (SMILES): C=CC(=O)OC + CCCC[n+]1ccn(C)c1.F[B-](F)(F)F
- viscosity (293.15 K, 101 kPa, x2 = 0.1387): 2.163 ± 0.047 mPa·s
- viscosity (293.15 K, 101 kPa, x2 = 0.9242): 108.1 ± 3.4 mPa·s
- viscosity (298.15 K, 101 kPa, x2 = 0): 0.465 ± 0.01 mPa·s
- viscosity (303.15 K, 101 kPa, x2 = 0.3354): 6.16 ± 0.13 mPa·s
- viscosity (303.15 K, 101 kPa, x2 = 0.4317): 11.33 ± 0.25 mPa·s
- viscosity (308.15 K, 101 kPa, x2 = 0.8484): 39.89 ± 0.87 mPa·s
- viscosity (313.15 K, 101 kPa, x2 = 0): 0.36 ± 0.01 mPa·s
- viscosity (318.15 K, 101 kPa, x2 = 0): 0.334 ± 0.007 mPa·s
- viscosity (318.15 K, 101 kPa, x2 = 0.6532): 12.51 ± 0.27 mPa·s
- viscosity (318.15 K, 101 kPa, x2 = 0.9242): 31.5 ± 0.69 mPa·s

Reference: the CheMixHub ionic liquid set
